# Experimental data reported in PubChem BioAssay AID212 (DTP/NCI, 2004).
# Values joined by “and” are separate entries in the source; they are usually repeats but may differ in a detail not shown here. Identical values can stand only once. Records with an inconclusive call do not appear.
# Test system: BDF1 mice, colon carcinoma 38 sc, T/C %
# Assay: NCI In Vivo Anticancer Drug Screen. Data for tumor model Colon Carcinoma 38 (subcutaneous) in B6D2F1 (BDF1) mice
# How it was run: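 T/C readout: treated group (T) measurement over vehicle control group (C) measurement. Endpoint is survival or tumor size in mice bearing a transplanted tumor.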
# [1] = endpoint: median tumor weight (est.), dose: 100.0 mg/kg/injection, schedule: Q07DX002 (ip), vehicle: saline with Tween-80, higher = larger tumour
# [2] = endpoint: median tumor weight (est.), dose: 50.0 mg/kg/injection, schedule: Q07DX002 (ip), vehicle: saline with Tween-80, higher = larger tumour
# [3] = endpoint: median tumor weight (est.), dose: 50.0 mg/kg/injection, schedule: Q07DX002 (ip), vehicle: saline, higher = larger tumour
# [4] = endpoint: median tumor weight (est.), dose: 100.0 mg/kg/injection, schedule: Q07DX002 (ip), vehicle: saline, higher = larger tumour
# [5] = endpoint: median tumor weight (est.), dose: 200.0 mg/kg/injection, schedule: Q07DX002 (ip), vehicle: saline with Tween-80, higher = larger tumour
# [6] = endpoint: median tumor weight (est.), dose: 200.0 mg/kg/injection, schedule: Q07DX002 (ip), vehicle: saline, higher = larger tumour
# [7] = endpoint: median tumor weight (est.), dose: 400.0 mg/kg/injection, schedule: Q07DX002 (ip), vehicle: saline with Tween-80, higher = larger tumour
compound,measurement,setting,value
CCCCCCCC(=O)N/N=C(\CO)[C@]1(O)Cc2c(O)c3c(c(O)c2[C@@H](OC2CC(N)C(O)C(C)O2)C1)C(=O)c1c(OC)cccc1C3=O (stereo not given in full),T/C,"endpoint: median survival time, dose: 30.0 mg/kg/injection, schedule: Q07DX002 (sc), vehicle: saline, higher = longer survival",100 % of control
same,T/C,"endpoint: median survival time, dose: 48.0 mg/kg/injection, schedule: Q07DX002 (sc), vehicle: saline, higher = longer survival",75 % of control
same,T/C,"endpoint: median survival time, dose: 126.0 mg/kg/injection, schedule: Q07DX002 (sc), vehicle: saline, higher = longer survival",105 % of control
same,T/C,"endpoint: median tumor weight (est.), dose: 6.75 mg/kg/injection, schedule: Q07DX002 (ip), vehicle: distilled water + Tween-80, higher = larger tumour",84 % of control
same,T/C,"endpoint: median tumor weight (est.), dose: 6.75 mg/kg/injection, schedule: Q07DX002 (ip), vehicle: suspension in saline, higher = larger tumour",97 % of control
same,T/C,"endpoint: median tumor weight (est.), dose: 13.5 mg/kg/injection, schedule: Q07DX002 (ip), vehicle: suspension in saline, higher = larger tumour",73 % of control
same,T/C,"endpoint: median tumor weight (est.), dose: 27.0 mg/kg/injection, schedule: Q07DX002 (ip), vehicle: suspension in saline, higher = larger tumour",101 % of control
same,T/C,"endpoint: median tumor weight (est.), dose: 54.0 mg/kg/injection, schedule: Q07DX002 (ip), vehicle: distilled water + Tween-80, higher = larger tumour",18 % of control and 41 % of control
same,T/C,"endpoint: median tumor weight (est.), dose: 54.0 mg/kg/injection, schedule: Q07DX002 (ip), vehicle: suspension in saline, higher = larger tumour",58 % of control
O=c1[nH]cnc2c1ccn2C1OC(CO)C(O)C1O (stereo not given),T/C,"endpoint: median tumor weight (est.), dose: 1.5 mg/kg/injection, schedule: Q07DX002 (ip), vehicle: saline, higher = larger tumour",88 % of control
same,T/C,"endpoint: median tumor weight (est.), dose: 3.0 mg/kg/injection, schedule: Q07DX002 (ip), vehicle: saline, higher = larger tumour",118 % of control
same,T/C,"endpoint: median tumor weight (est.), dose: 6.0 mg/kg/injection, schedule: Q07DX002 (ip), vehicle: saline, higher = larger tumour",100 % of control
same,T/C,"endpoint: median tumor weight (est.), dose: 12.0 mg/kg/injection, schedule: Q07DX002 (ip), vehicle: saline, higher = larger tumour",86 % of control
same,T/C,"endpoint: median tumor weight (est.), dose: 24.0 mg/kg/injection, schedule: Q07DX002 (ip), vehicle: saline, higher = larger tumour",63 % of control
CC[C@@]1(O)C[C@H](OC2CC(N(C)C)C(OC3CC(O)C(OC4CCC(=O)C(C)O4)C(C)O3)C(C)O2)c2c(cc3c(c2O)C(=O)c2c(O)ccc(O)c2C3=O)[C@H]1C(=O)OC (stereo not given in full),T/C,"endpoint: median tumor weight (est.), dose: 0.5 mg/kg/injection, schedule: Q07DX002 (ip), vehicle: water, higher = larger tumour",78 % of control
same,T/C,"endpoint: median tumor weight (est.), dose: 0.5 mg/kg/injection, schedule: Q07DX003 (ip), vehicle: water, higher = larger tumour",100 % of control
same,T/C,"endpoint: median tumor weight (est.), dose: 1.0 mg/kg/injection, schedule: Q07DX002 (ip), vehicle: water, higher = larger tumour",47 % of control
same,T/C,"endpoint: median tumor weight (est.), dose: 1.0 mg/kg/injection, schedule: Q07DX003 (ip), vehicle: water, higher = larger tumour",111 % of control
same,T/C,"endpoint: median tumor weight (est.), dose: 2.0 mg/kg/injection, schedule: Q07DX002 (ip), vehicle: water, higher = larger tumour",84 % of control
same,T/C,"endpoint: median tumor weight (est.), dose: 2.0 mg/kg/injection, schedule: Q07DX003 (ip), vehicle: water, higher = larger tumour",79 % of control
same,T/C,"endpoint: median tumor weight (est.), dose: 4.0 mg/kg/injection, schedule: Q07DX002 (ip), vehicle: water, higher = larger tumour",44 % of control
same,T/C,"endpoint: median tumor weight (est.), dose: 4.0 mg/kg/injection, schedule: Q07DX003 (ip), vehicle: water, higher = larger tumour",46 % of control
same,T/C,"endpoint: median tumor weight (est.), dose: 8.0 mg/kg/injection, schedule: Q07DX002 (ip), vehicle: water, higher = larger tumour",47 % of control
O=C(Nc1nncs1)c1cccs1,T/C,[1],87 % of control and 88 % of control
CC1CN1C(=O)NCCCCCCNC(=O)N1CC1C (stereo not given),T/C,"endpoint: median tumor weight (est.), dose: 5.0 mg/kg/injection, schedule: Q07DX003 (ip), vehicle: Klucel (hydroxypropylcellulose) (HPC), higher = larger tumour",73 % of control and 90 % of control
same,T/C,"endpoint: median tumor weight (est.), dose: 20.0 mg/kg/injection, schedule: Q07DX003 (ip), vehicle: Klucel (hydroxypropylcellulose) (HPC), higher = larger tumour",15 % of control and 34 % of control
same,T/C,"endpoint: median tumor weight (est.), dose: 40.0 mg/kg/injection, schedule: Q07DX003 (ip), vehicle: Klucel (hydroxypropylcellulose) (HPC), higher = larger tumour",34 % of control
O=Cc1ccc(O)c(O)c1,T/C,"endpoint: median tumor weight (est.), dose: 25.0 mg/kg/injection, schedule: Q07DX002 (ip), vehicle: saline, higher = larger tumour",65 % of control
same,T/C,[2],117 % of control
same,T/C,[3],85 % of control
same,T/C,[1],91 % of control
same,T/C,[4],63 % of control
same,T/C,[5],108 % of control
same,T/C,[6],97 % of control
same,T/C,[7],113 % of control
same,T/C,"endpoint: median tumor weight (est.), dose: 800.0 mg/kg/injection, schedule: Q07DX002 (ip), vehicle: saline, higher = larger tumour",88 % of control
CO[C@H](C(=O)[C@@H](O)[C@@H](C)O)[C@@H]1Cc2cc3cc(OC4CC(OC5CC(O)C(O)C(C)O5)C(O)C(C)O4)c(C)c(O)c3c(O)c2C(=O)[C@H]1OC1CC(OC2CC(OC3CC(C)(O)C(O)C(C)O3)C(O)C(C)O2)C(O)C(C)O1 (stereo not given in full),T/C,"endpoint: median tumor weight (est.), dose: 0.06 mg/kg/injection, schedule: Q07DX002 (ip), vehicle: saline, higher = larger tumour",114 % of control
same,T/C,"endpoint: median tumor weight (est.), dose: 0.12 mg/kg/injection, schedule: Q07DX002 (ip), vehicle: saline, higher = larger tumour",99 % of control
same,T/C,"endpoint: median tumor weight (est.), dose: 0.25 mg/kg/injection, schedule: Q07DX002 (ip), vehicle: saline, higher = larger tumour",161 % of control
same,T/C,"endpoint: median tumor weight (est.), dose: 0.25 mg/kg/injection, schedule: Q07DX003 (ip), vehicle: saline, higher = larger tumour",75 % of control
same,T/C,"endpoint: median tumor weight (est.), dose: 0.5 mg/kg/injection, schedule: Q07DX003 (ip), vehicle: saline, higher = larger tumour",65 % of control
same,T/C,"endpoint: median tumor weight (est.), dose: 1.0 mg/kg/injection, schedule: Q07DX003 (ip), vehicle: saline, higher = larger tumour",49 % of control
same,T/C,"endpoint: median tumor weight (est.), dose: 2.0 mg/kg/injection, schedule: Q07DX003 (ip), vehicle: saline, higher = larger tumour",37 % of control
Nc1ncnc2c1ncn2C1OC(COS(N)(=O)=O)C(O)C1O (stereo not given),T/C,"endpoint: median survival time, dose: 0.25 mg/kg/injection, schedule: Q02DX004 (sc), vehicle: saline, higher = longer survival",100 % of control
same,T/C,"endpoint: median survival time, dose: 0.5 mg/kg/injection, schedule: Q02DX004 (sc), vehicle: saline, higher = longer survival",100 % of control
Nc1ccc(C(OC(=O)c2cc3ccccc3c(Cc3c(O)c(C(=O)OC(c4ccc(N)cc4)(c4ccc(N)cc4)c4ccc(N)cc4)cc4ccccc34)c2O)(c2ccc(N)cc2)c2ccc(N)cc2)cc1,T/C,"endpoint: median tumor weight (est.), dose: 1.56 mg/kg/injection, schedule: Q07DX002 (ip), vehicle: saline with Tween-80, higher = larger tumour",100 % of control
same,T/C,"endpoint: median tumor weight (est.), dose: 3.12 mg/kg/injection, schedule: Q07DX002 (ip), vehicle: saline with Tween-80, higher = larger tumour",70 % of control
same,T/C,"endpoint: median tumor weight (est.), dose: 6.25 mg/kg/injection, schedule: Q07DX002 (ip), vehicle: saline with Tween-80, higher = larger tumour",92 % of control
same,T/C,"endpoint: median tumor weight (est.), dose: 25.0 mg/kg/injection, schedule: Q07DX002 (ip), vehicle: saline with Tween-80, higher = larger tumour",84 % of control and 93 % of control
same,T/C,[2],114 % of control
CONc1ccn(C2OC(CO)C(O)C2O)c(=O)n1 (stereo not given),T/C,[3],92 % of control and 101 % of control
same,T/C,[4],113 % of control
same,T/C,[6],124 % of control
same,T/C,"endpoint: median tumor weight (est.), dose: 400.0 mg/kg/injection, schedule: Q07DX002 (ip), vehicle: saline, higher = larger tumour",91 % of control
O=C(N/N=C\c1cc(Br)cc(Br)c1O)N/N=C/c1cc(Br)cc(Br)c1O,T/C,"endpoint: median tumor weight (est.), dose: 12.5 mg/kg/injection, schedule: Q07DX002 (ip), vehicle: saline with Tween-80, higher = larger tumour",119 % of control
same,T/C,[1],90 % of control
same,T/C,[5],102 % of control
same,T/C,[7],92 % of control
CC[PH+](CC)CC[S-].CC[PH+](CC)CC[S-].[Au+].[Au+],T/C,"endpoint: median tumor weight (est.), dose: 5.0 mg/kg/injection, schedule: Q07DX002 (ip), vehicle: Klucel (hydroxypropylcellulose) (HPC), higher = larger tumour",67 % of control
same,T/C,"endpoint: median tumor weight (est.), dose: 10.0 mg/kg/injection, schedule: Q07DX002 (ip), vehicle: Klucel (hydroxypropylcellulose) (HPC), higher = larger tumour",89 % of control
same,T/C,"endpoint: median tumor weight (est.), dose: 20.0 mg/kg/injection, schedule: Q07DX002 (ip), vehicle: Klucel (hydroxypropylcellulose) (HPC), higher = larger tumour",78 % of control
same,T/C,"endpoint: median tumor weight (est.), dose: 40.0 mg/kg/injection, schedule: Q07DX002 (ip), vehicle: Klucel (hydroxypropylcellulose) (HPC), higher = larger tumour",57 % of control
Cc1ccccc1SSc1ccccc1C,T/C,"endpoint: median tumor weight (est.), dose: 25.0 mg/kg/injection, schedule: Q07DX003 (ip), vehicle: other, higher = larger tumour",92 % of control
same,T/C,"endpoint: median tumor weight (est.), dose: 25.0 mg/kg/injection, schedule: Q07DX003 (ip), vehicle: saline with Tween-80, higher = larger tumour",96 % of control
same,T/C,"endpoint: median tumor weight (est.), dose: 50.0 mg/kg/injection, schedule: Q07DX003 (ip), vehicle: other, higher = larger tumour",123 % of control
same,T/C,"endpoint: median tumor weight (est.), dose: 50.0 mg/kg/injection, schedule: Q07DX003 (ip), vehicle: saline with Tween-80, higher = larger tumour",88 % of control
same,T/C,"endpoint: median tumor weight (est.), dose: 100.0 mg/kg/injection, schedule: Q07DX003 (ip), vehicle: other, higher = larger tumour",89 % of control
same,T/C,"endpoint: median tumor weight (est.), dose: 100.0 mg/kg/injection, schedule: Q07DX003 (ip), vehicle: saline with Tween-80, higher = larger tumour",62 % of control
same,T/C,"endpoint: median tumor weight (est.), dose: 200.0 mg/kg/injection, schedule: Q07DX003 (ip), vehicle: other, higher = larger tumour",84 % of control
same,T/C,"endpoint: median tumor weight (est.), dose: 200.0 mg/kg/injection, schedule: Q07DX003 (ip), vehicle: saline with Tween-80, higher = larger tumour",74 % of control
